# From US11926619B2, “Certain pladienolide compounds and methods of use” (EISAI R&D MANAGEMENT CO., LTD., priority 2018, dated 2024)
# pIC50: −log10 of the molar value.
# Legend:
# [1] = biological target: T1, SF3b complexes (Homo sapiens, UniProt O75533+Q7RTV0); test: Scintillation proximity assay (SPA) with [3H]-labelled pladienolide probe; format: binding; conditions: wt SF3B1, read-out: SPA (wt SF3B1 cells) IC50
# T1 construct: endogenous in cells
# Protocol: Batch immobilization of anti-SF3B1 antibody (MBL) to anti-mouse PVT SPA scintillation beads (PerkinElmer) was prepared as follows: for every 2.5 mg of nuclear extracts, 5 μg anti-SF3B1 antibody and 1.5 mg of beads were mixed in 150 μl PBS. The antibody-bead mixture was incubated for 30 min at RT and centrifuged at 18,000 g for 5 min. 150 μl PBS was used to resuspend every 1.5 mg antibody-bead mixture. The beads were suspended and added to the prepared nuclear extracts. The slurry was incubated for 2 h at 4° C. with gentle mixing. The beads were then collected by centrifuging at 18,000 g for 5 min, and washed twice with PBS+0.1% Triton X-100. After a final centrifugation step, every 1.5 mg of beads was suspended with 150 μl of PBS. The SF3b complexes were tested for [^3H]-labelled pladienolide probe binding ([^3H]-PB), synthesized as previously described (Kotake et al., 2007). 100 μL binding reactions were prepared with 50 μl bead slurry and by adding varying concentrations of PB or PB—OH, and after 30 min pre-incubation, 2.5 nM [^3H]—PB was added. The mixture was incubated for 30 min, and luminescence signals were read using a MicroBeta2 Plate Counter (PerkinElmer). Prism 6 (Graphpad) was used for non-linear regression curve fitting of the data.
# [2] = system: Panc 05.04 cells (pancreatic cancer cells; Q699H and K700E mutations in SF3B1); test: Cell viability assay (CellTiter-Glo, 72 hr), Panc 05.04 cells; format: cell-based; conditions: Panc 05.04 cells (mutant SF3B1); for Emax: maximum achievable response in tested dose range, negative value = cellular lethality, read-out: Panc 05.04 (mt SF3B1 cells) Emax (%); for GI50: read-out: Panc 05.04 (mt SF3B1 cells), GI50
# Summary of the method: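 Viability was read as ATP content (CellTiter-Glo) after 72 hr compound exposure of Panc 05.04 cells at 37 °C, nine concentrations, 0.1% DMSO. Percentage growth was referenced to time-zero and vehicle wells and plotted against concentration to obtain Emax; negative Emax denotes cell killing.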
# [3] = system: WiDr cells (colon cancer cells; wildtype SF3B1); test: Cell viability assay (CellTiter-Glo, 72 hr), WiDr cells; format: cell-based; conditions: Homo sapiens; WiDr cells (wildtype SF3B1); read-out: WiDr GI50
# Summary of the method: (§1)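 Cells at 2000/well were exposed to 9 compound concentrations (0.1% DMSO) in duplicate or triplicate for 72 hr at 37 °C. ATP was read by CellTiter-Glo against a time-zero plate and DMSO control growth. Percent growth/viability was plotted against concentration to give Emax; negative values indicate lethality.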
# [4] = system: WiDr-R cells (colon cancer cells; chemically-induced SF3B1 R1074H mutant); test: Cell viability assay (CellTiter-Glo, 72 hr), resistant WiDr-R cells (counter-screen); format: cell-based; conditions: WiDr-R cells (SF3B1 R1074H mutation, resistant); read-out: WiDr-R GI50
# Summary of the method: as §1
Compound,pIC50 [1],Emax [2] [%],GI50 [2] [nM],GI50 [3] [nM],GI50 [4] [nM]
C/C(=C\C=C\C(C)c1ccncn1)[C@H]1OC(=O)C[C@H](O)CC[C@@](C)(O)[C@@H](OC(=O)N2CCN(C3CCCCCC3)CC2)/C=C/[C@@H]1C (stereo partly shown),6.30,-26.6,956,532,> 1000
C/C(=C\C=C\[C@@H](C)COC(=O)N1CC[C@@H](O)C1)[C@H]1OC(=O)C[C@H](O)CC[C@H](C)[C@@H](OC(=O)N2CCN(C3CCCCCC3)CC2)/C=C/[C@@H]1C,8.25,-77.8,10.8,8.27,> 1000
C/C(=C\C=C\[C@@H](C)CCC(=O)N1CCCC1)[C@H]1OC(=O)C[C@H](O)CC[C@@](C)(O)[C@@H](OC(=O)N2CCN(C)CC2)/C=C/[C@@H]1C,8.36,-87.3,27.3,26.4,> 1000
C/C(=C\C=C\[C@@H](C)COC(=O)N1CCC[C@H]1C(=O)O)[C@H]1OC(=O)C[C@H](O)CC[C@@](C)(O)[C@@H](OC(=O)N2CCN(C3CCCCCC3)CC2)/C=C/[C@@H]1C,7.44,35,2640,> 1000,> 1000
C/C(=C\C=C\C(C)c1ccnc(N(C)C)n1)[C@H]1OC(=O)C[C@H](O)CC[C@@](C)(O)[C@@H](OC(=O)N2CCN(C3CCCCCC3)CC2)/C=C/[C@@H]1C (stereo partly shown),7.79,-94.5,98.3,40.1,> 10000
CC(=O)O[C@H]1/C=C/[C@H](C)[C@@H](/C(C)=C/C=C/[C@@H](C)COC(=O)N2CCCCC2)OC(=O)C[C@H](O)CC[C@@]1(C)O,7.82,-74.6,82.2,49.7,> 10000
C/C(=C\C=C\[C@@H](C)c1ncccn1)[C@H]1OC(=O)C[C@H](O)CC[C@@](C)(O)[C@@H](OC(=O)N2CCN(C3CCCCCC3)CC2)/C=C/[C@@H]1C,8.09,-92.9,29.5,33.6,> 1000
C/C(=C\C=C\[C@@H](C)c1ccccn1)[C@H]1OC(=O)CCCCC[C@@H](OC(=O)N2CCN(C)CC2)/C=C/[C@@H]1C,8.10,-93.5,75.1,67.1,> 10000
C/C(=C\C=C\[C@@H](C)COC(=O)N1CC[C@@H](O)C1)[C@H]1OC(=O)C[C@H](O)CC[C@H](C)[C@@H](OC(=O)N2CCN(C)CC2)/C=C/[C@@H]1C,8.26,-83.3,3.37,4.86,> 1000
CC(=O)O[C@H]1/C=C/[C@H](C)[C@@H](/C(C)=C/C=C/[C@@H](C)COC(=O)N(C)C(C)C)OC(=O)C[C@H](O)CC[C@@]1(C)O,8.31,-87.4,54.6,32.6,> 10000
C/C(=C\C=C\[C@@H](C)COC(=O)N1CCCC1)[C@H]1OC(=O)C[C@@H](O)CC[C@](C)(O)[C@@H](OC(=O)N2CCN(C)CC2)/C=C/[C@@H]1C,7.32,-90.2,6.55,15.2,> 1000
C/C(=C\C=C\[C@@H](C)COC(=O)N1CCC[C@H]1CO)[C@H]1OC(=O)CCCC[C@@](C)(O)[C@@H](OC(=O)N2CCN(C)CC2)/C=C/[C@@H]1C,8.59,-72.3,2.07,1.74,> 1000
C/C(=C\C=C\[C@@H](C)Cn1cc(C2CC2)nn1)[C@H]1OC(=O)C[C@H](O)CC[C@@](C)(O)[C@@H](OC(=O)N2CCN(C3CCCCCC3)CC2)/C=C/[C@@H]1C,7.85,-94.5,38.6,51.8,> 1000
C/C(=C\C=C\[C@@H](C)COC(=O)N1CC[C@@H](O)C1)[C@H]1OC(=O)C[C@H](O)CC[C@@](C)(O)[C@@H](OC(=O)N2CCN(C3CCCCCC3)CC2)/C=C/[C@@H]1C,8.12,-84.5,5.51,5.56,> 1000
C/C(=C\C=C\[C@@H](C)CNC(=O)C1CCCC1)[C@H]1OC(=O)C[C@H](O)CC[C@@](C)(O)[C@@H](OC(=O)N2CCN(C3CCCCCC3)CC2)/C=C/[C@@H]1C,7.95,-88.4,53.3,73,> 1000
C/C(=C\C=C\[C@H](C)c1ncccn1)[C@H]1OC(=O)C[C@H](O)CC[C@@](C)(O)[C@@H](OC(=O)N2CCN(C3CCCCCC3)CC2)/C=C/[C@@H]1C,8.18,-93.1,34.5,38.1,> 1000
C/C(=C\C=C\[C@@H](C)COC(=O)N1CCCC1)[C@H]1OC(=O)CCCCC[C@@H](OC(=O)N(C)C)/C=C/[C@@H]1C,7.15,-94.8,156,135,6380
COC[C@H]1CCCN1C(=O)OC[C@H](C)/C=C/C=C(\C)[C@H]1OC(=O)C[C@H](O)CC[C@@](C)(O)[C@@H](OC(C)=O)/C=C/[C@@H]1C,7.22,-90.9,76.5,71.6,> 1000
C/C(=C\C=C\[C@@H](C)c1ccccn1)[C@H]1OC(=O)C[C@H](O)CC[C@@](C)(O)[C@@H](OC(=O)N2CCN(C3CCC3)CC2)/C=C/[C@@H]1C,8.14,-83.6,38.9,36.7,> 1000
C/C(=C\C=C\[C@@H](C)c1ccccn1)[C@H]1OC(=O)C[C@H](O)CC[C@@](C)(O)[C@@H](OC(=O)N2CCN(C3CCOCC3)CC2)/C=C/[C@@H]1C,8.07,-87.7,37.2,53.1,> 1000
C/C(=C\C=C\[C@@H](C)COC(=O)N1CCC[C@H]1CO)[C@H]1OC(=O)C[C@H](O)CC[C@@](C)(O)[C@@H](OC(=O)N2CCN(C)CC2)/C=C/[C@@H]1C,7.85,-77.2,20.3,29.4,> 1000
C/C(=C\C=C\[C@@H](C)COC(=O)N1CCCC1)[C@H]1OC(=O)CCCCC[C@@H](NC(=O)N2CCN(C)CC2)/C=C/[C@@H]1C,7.84,-93.6,19,18.5,> 1000
CCCN(C)C(=O)OC[C@H](C)/C=C/C=C(\C)[C@H]1OC(=O)C[C@H](O)CC[C@@](C)(O)[C@@H](OC(C)=O)/C=C/[C@@H]1C,8.21,-91.8,42.5,39.1,> 1000
C/C(=C\C=C\[C@H](C)c1cccnc1)[C@H]1OC(=O)C[C@H](O)CC[C@@](C)(O)[C@@H](OC(=O)N2CCN(C3CCCCCC3)CC2)/C=C/[C@@H]1C,8.59,-94.2,20.4,29.4,> 1000
CC(=O)O[C@H]1/C=C/[C@H](C)[C@@H](/C(C)=C/C=C/[C@@H](C)COC(=O)N(C)C)OC(=O)C[C@H](O)CC[C@@]1(C)O,7.75,-91.2,74.4,46.7,> 10000
CCN(CC)C(=O)OC[C@H](C)/C=C/C=C(\C)[C@H]1OC(=O)C[C@H](O)CC[C@@](C)(O)[C@@H](OC(C)=O)/C=C/[C@@H]1C,8.62,-92.2,25,21.2,> 10000
COC[C@@H]1CCCN1C(=O)OC[C@H](C)/C=C/C=C(\C)[C@H]1OC(=O)C[C@H](O)CC[C@@](C)(O)[C@@H](OC(=O)N2CCN(C3CCCCCC3)CC2)/C=C/[C@@H]1C,7.78,-89.1,11.9,29.1,> 1000
C/C(=C\C=C\[C@@H](C)COC(=O)N1CCCC1)[C@H]1OC(=O)C[C@H](O)CC[C@@](C)(O)[C@@H](OC(=O)N2CCN(C)CC2)/C=C/[C@@H]1C,8.68,-90.3,3.05,3.83,> 1000
CC(=O)O[C@H]1/C=C/[C@H](C)[C@@H](/C(C)=C/C=C/[C@@H](C)COC(=O)N2CCC[C@@H]2C)OC(=O)C[C@H](O)CC[C@@]1(C)O,7.56,-90,52.6,38.1,> 10000
